Data: patent publication US20040103451A1, “Abscisic acid 8'-and 7'-hydroxylase genes and related sequences from plants” (priority 2003, published 2004)

Legend:
CYP72A7 = test: biotransformation of (+)-ABA by yeast expressing CYP72A7, LC/MS/MS of culture media; assay type: cell-based, Arabidopsis thaliana
Experimental: FIG. 6. Heterologous expression of an Arabidopsis P450 ABA 7′-hydroxylase activity in yeast. The CYP72A7 cDNA from Arabidopsis thaliana was inserted into the pYeDP60 vector, transformed into the WAT11 yeast strain (but not the WAT21 yeast strain) and analyzed for the ability to metabolize (+)-ABA. The biotransformation of (+)-ABA to 7′-hydroxyABA was assessed by High Performance Liquid Chromatography—Mass Spectrometry. (HPLC/MS/MS) 7′-hydroxyABA was excreted into the media. Measured activity was limited by access of enzyme to the substrate (ABA).
For yeast expression, the cDNAs were transferred into the expression vector pYeDP60 (Pompon D., et al., 1996, Method Enzymol 272: 51-64), and purified recombinant plasmid was subsequently transformed into WAT 11 and WAT 21 yeast strains over-expressing the Arabidopsis cytochrome P450 reductases, CTR1 and CTR2, respectively (Pompon et al., ibid). […]
For expression analysis the cultures were grown for two days on SC minus URA agar plates at 30° C. […] One to 10 mls of the sample was loaded onto an Oasis HLB column (Waters) to purify ABA and ABA-metabolites and the resulting eluant was analyzed by LC/MS/MS.

pJK6-29 mRNA = assay type: cell-based, corn
Experimental: Total RNA isolated from non-ABA-induced and ABA-induced (9 hr at […] (+)-ABA) BMS corn suspension was probed with radiolabeled pJK6-29. […] Further Northern blot analysis was carried out. In this experiment, the time course of gene expression was compared with the appearance of ABA 8'-hydroxylase activity. ABA 8'-hydroxylase activity was determined by in vitro assay (see Krochko J. E., et al., 1998, Plant Physiol 118: 849-860) with isolated microsomes isolated from BMS corn suspension cells at defined periods after the addition of 200 μM (+)-ABA. Enzyme activity was assayed at 0 (control), 3, 6, 9, 12, 16, 20.5, 25.5 and 28.5 hours after the addition of (+)-ABA. Total RNA was extracted from duplicate tissue samples and expression of the P450 clone, pJK6-29, was determined by Northern blot analysis. The time-course of mRNA induction for pJK6-29 is consistent with the appearance of ABA 8'-hydroxylase activity (FIG. 5).

ABA 8′-hydroxylase [1] = conditions: cited from earlier work; for inhibition of induction of ABA 8′-hydroxylase: corn suspension cells
ABA 8′-hydroxylase [2] = conditions: microsomal enzyme, BMS corn suspension cells; cited from earlier work

CC1=CC(=O)CC(C)(C)[C@@]1(O)/C=C/C(C)=C\C(=O)O [(+)-ABA, S-(+)-abscisic acid]
ABA hydroxylase activity (CYP72A7; WAT21 yeast strain): did not support any ABA hydroxylase activity
ABA 7′-hydroxylase activity (conversion to 7′-hydroxyABA) (CYP72A7; pYeDP60.Ath30-2 in WAT11 yeast strain, (+)-ABA 20 μM to 50 μM, 24 hours): ABA 7′-hydroxylase activity was demonstrated
regulation of pJK6-29 P450 mRNA expression (pJK6-29 mRNA): upregulated
time of peak ABA 8′-hydroxylase activity after addition of (+)-ABA (ABA 8′-hydroxylase [1]; BMS corn suspension culture medium): 16 h
induction of ABA 8′-hydroxylase (ABA 8′-hydroxylase [1]; maize BMS suspension cultured cells): induced

[C-]#[O+] [CO]
inhibition of ABA 8′-hydroxylase (ABA 8′-hydroxylase [2]): inhibited

Nc1ncnc2c1ncn2[C@@H]1O[C@H](CO)C[C@H]1O [cordecypin]
inhibition of induction of ABA 8′-hydroxylase (ABA 8′-hydroxylase [1]): inhibited

C[C@@H]1C[C@@H]([C@H](O)CC2CC(=O)NC(=O)C2)C(=O)[C@@H](C)C1 [cycloheximide]
inhibition of induction of ABA 8′-hydroxylase (ABA 8′-hydroxylase [1]): inhibited

Clc1ccc(N2N=N[C@@H]3[C@@H]4C[C@@H]([C@H]5N=N[C@@H]45)[C@@H]32)cc1 [tetcyclacis]
inhibition of ABA 8′-hydroxylase (ABA 8′-hydroxylase [2]): inhibited

oxidized cytochrome c: inhibitor of ABA 8′-hydroxylase
inhibition of ABA 8′-hydroxylase (ABA 8′-hydroxylase [2]): inhibited
